Tests used:
[1] = in the clinic, cited from earlier work
Text: The sixth diabetic animal, 161281, was not treated because it was already receiving insulin.

diabetic rhesus monkeys [2] = test: Glucose lowering by liraglutide detected by continuous glucose monitoring (CGM); assay type: in vivo; conditions: for Mean glucose, With liraglutide: CGM over treatment period (16 to 28 days)
Description: Vehicle used was 1 mM Sodium Phosphate (pH = 8) and 5% Mannitol. […] Blood samples were obtained at 0.08, 0.25, 0.50, 1.00, 2.00, 4.00, 6.00, 7.00, and 24.00 hours post-dose. […] Compound was given daily subcutaneously at 15 µg/kg in the morning each day (~8–9 am). Lira dosing started on Day 39 of the CGM period and continued for 28 days.
Surgery procedure: Rhesus monkeys underwent surgery for placement of the DSI HD-XG glucose sensor into the right carotid artery. Animals were initially sedated with 10 mg/kg ketamine IM, intubated and anesthesia was maintained through isoflurane inhalation. All monkeys received 0.01 mg/kg Buprenorphine IM, 4.4 mg/kg carprofen SC and 20 mg/kg ceftiofur SC preoperatively. A 3–4 centimeter skin incision was made on the right, mid-lateral neck over the carotid artery where the pulse was palpated. A 1–2 centimeter segment of the right carotid artery was isolated and a tight ligature was placed distally towards the head around the exposed section of vessel. A second ligature was pre-placed, but not tightened, proximally towards the chest around the exposed section of vessel to prevent excessive bleeding when the vessel was cut. A small incision was made in the artery between these two ligatures. The sensor was inserted into the lumen of the vessel and advanced towards the heart approximately 8–9 centimeters. The pre-placed ligature was tightened to prevent bleeding around the sensor. A third ligature was secured around the sensor between the previously placed ligatures and further secured around the vessel to prevent the sensor from migrating. The telemetry body was secured to the underlying musculature in the right lateral neck near the sensor entry into the artery. Monkeys received 2 mg/kg bupivacaine locally at the skin incision. All incisions were then closed routinely. The animals were removed from the isoflurane anesthesia to allow for recovery and were monitored until they were sternal and stable. Animals received 4.4 mg/kg carprofen PO or IM once the day following surgery and were observed daily for the next 10 days to assure a normal recovery. A reference electrode and telemetry body was placed in the subcutaneous tissue near the catheter entry point as recommended by DSI.
The implanted sensor transmits its signal to a repeater located on the same animal on the collar. That repeater then immediately retransmits the HD-XG data on a different frequency to a repeater receiver up to 8 meters away. […] Glucose sensor values were reported once per second.

diabetic rhesus monkeys [3] = test: Multiscale entropy (MSE) analysis of glucose dynamics before and during liraglutide treatment; assay type: in vivo; conditions: 15 µg/kg sc daily
Description: Details about the definition and calculation of MSE are given in the Supplementary Materials and Methods. MSE-AUC10s-30m is the area under an MSE curve between scale factors of 10 seconds and 30 minutes, and was used as a single-number summary of the curve.
Five diabetic animals were treated with liraglutide for four weeks, beginning during the sixth week of monitoring. […] For each animal the period of the same length immediately preceding the start of liraglutide was used as the comparator (‘pre-liraglutide’) period.
Supplementary Materials and Methods
Multiscale entropy analysis, introduced by Costa et al1, is built upon a quantity called sample entropy2, which we describe first. The sample entropy of a regularly spaced time series of length N is defined using two parameters: a subsequence length, m, and a similarity threshold, r. Consider any two subsequences of length m of the time series. […]
start at the same position.) The subsequences are said to match if the i-th element of one subsequence differs from the i-th element of the other by no more than r, for all ݅=1,…,݉. Let B denote the number of matching pairs of subsequences when we consider all possible pairs of length- m subsequences from the first […] observations of the series. Next, repeat the process of counting matches, but use subsequences of length m+1instead of m, and consider all possible such subsequences taken from the full series of N observations. Let A denote the number of matching pairs among them.
Then the sample entropy is the negative natural logarithm of the ratio A/B. See Richman and Moorman 2 for details and explicit formulas. […]
Multiscale entropy calculates this sample entropy after applying various amounts of averaging to the original time series. […] The result is a new time series of averages, for which sample entropy is calculated. […]
Application of MSE analysis requires choosing values for the parameters m and r, and the set of scale factors to use. […] The smallest possible scale fact or is set by the time resolution of the series being analyzed, in our case 1 second. […]

CCCCCCCCCCCCCCCC(=O)N[C@@H](CCC(=O)NCCCC[C@H](NC(=O)[C@H](C)NC(=O)[C@H](C)NC(=O)[C@H](CCC(N)=O)NC(=O)CNC(=O)[C@H](CCC(=O)O)NC(=O)[C@H](CC(C)C)NC(=O)[C@H](Cc1ccc(O)cc1)NC(=O)[C@H](CO)NC(=O)[C@H](CO)NC(=O)[C@@H](NC(=O)[C@H](CC(=O)O)NC(=O)[C@H](CO)NC(=O)[C@@H](NC(=O)[C@H](Cc1ccccc1)NC(=O)[C@@H](NC(=O)CNC(=O)[C@H](CCC(=O)O)NC(=O)[C@H](C)NC(=O)[C@@H](N)Cc1cnc[nH]1)[C@@H](C)O)[C@@H](C)O)C(C)C)C(=O)N[C@@H](CCC(=O)O)C(=O)N[C@@H](Cc1ccccc1)C(=O)N[C@H](C(=O)N[C@@H](C)C(=O)N[C@@H](Cc1c[nH]c2ccccc12)C(=O)N[C@@H](CC(C)C)C(=O)N[C@H](C(=O)N[C@@H](CCCNC(=N)N)C(=O)NCC(=O)N[C@@H](CCCNC(=N)N)C(=O)NCC(=O)O)C(C)C)[C@@H](C)CC)C(=O)O [liraglutide]
time of maximum concentrations post dosing ([1]; subcutaneous administration): 8 to 12 h | mean peak (Cmax) exposure ([1]; subcutaneous single dose of 0.6 mg): 35 ng/mL | afternoon peak in glucose (diabetic rhesus monkeys [2]; all five treated diabetic rhesus, mean glucose by time of day, before and during treatment): reduced | Mean glucose, With liraglutide (diabetic rhesus monkeys [2]; diabetic rhesus animal 161282, 15 µg/kg sc daily): 208.2 mg/dL | Mean glucose, With liraglutide (diabetic rhesus monkeys [2]; diabetic rhesus animal 161283, 15 µg/kg sc daily): 109.6 mg/dL | Mean glucose, With liraglutide (diabetic rhesus monkeys [2]; diabetic rhesus animal 161284, 15 µg/kg sc daily): 183.1 mg/dL | Mean glucose, With liraglutide (diabetic rhesus monkeys [2]; diabetic rhesus animal 161286, 15 µg/kg sc daily): 236.6 mg/dL | Mean glucose, With liraglutide (diabetic rhesus monkeys [2]; diabetic rhesus animal 161288, 15 µg/kg sc daily): 140.9 mg/dL | coefficient of variation of glucose (standard deviation as a proportion of the mean), treatment vs pre-treatment (diabetic rhesus monkeys [2]; five diabetic rhesus, 15 µg/kg sc daily): no consistent change | decline of mean glucose (diabetic rhesus monkeys [2]; range over all five treated diabetic rhesus, 15 µg/kg sc daily, treatment vs pre-treatment period): 5–42% | MSE curve of glucose, treatment vs pre-treatment period (diabetic rhesus monkeys [3]; animals 161286 and 161288): higher | complexity of glucose dynamics in diabetic animals (diabetic rhesus monkeys [3]; five diabetic rhesus, 2–4 weeks of treatment): did not consistently change complexity | MSE of glucose, treatment vs pre-treatment period (diabetic rhesus monkeys [3]; three of five treated diabetic animals, 16 to 28 days): essentially no difference
